Experimental data published in publication PMC5579575, “Study of Alzheimer’s Disease-Related Biophysical Kinetics with a Microslit-Embedded Cantilever Sensor in a Liquid Environment” (Sensors (Basel, Switzerland), 2017).

Experiments:
[1] = system: monoclonal 6E10 antibody (mAb); assay: Quantitative detection of Aβ42 with mAb-immobilized slit cantilever (resonant frequency shift); format: binding; details: for frequency shift (average): in 10 mM PBS, 30 min, rinsed with PBS, mAb 10 μg/mL immobilized
Method: To detect the target molecules, a commercial monoclonal 6E10 antibody (mAb, 10 μg/mL, Covance, Princeton, NJ, USA) was immobilized on the cantilever surfaces by using a conventional coupling method. The mAb is known to include a specific binding ligand with the first 1–16 sequence of human Aβ peptides. Prior to antibody immobilization, the slit cantilever with a 50 nm thick Au surface was cleaned with piranha solution (a 4:1 ratio of H2SO4 to H2O2) and rinsed with deionized water (DI). In addition, 10 mM of 11-Mercaptoundecanoic acid (11-MUC, Sigma-Aldrich, St. Louis, MO, USA) diluted in ethanol was treated for 12 h on the Au surface of the sensor to establish a self-assembled monolayer. The MUC-modified slit cantilever was immersed in a mixture of 1-ethyl-3-(3-dimethylaminopropyl) carbodiimide (EDC, 80 mM, Sigma-Aldrich) and N-hydroxysuccinimide (NHS, 20 mM, Sigma-Aldrich) dissolved for 2 h in 10 mM of phosphate-buffered solution (PBS, pH = 7.4). Then, mAb, which was diluted as 10 µg/mL in 10 mM PBS, was immobilized on the functionalized surface of the slit cantilever for 2 h, followed by rinsing with PBS and DI.
To evaluate the sensing performance of the slit cantilever in a liquid environment, quantification of the synthetic Aβ42 peptide, which has an identical sequence of 42-residue amino acids associated with human AD, was investigated in a physiological-level concentration. Prior to conducting biomolecular interactions, a drift of resonant frequency was verified and stabilized until steady state (Figure S2). The resonance responses reached its steady state within 200 min and the frequency maintained for 60 min with fluctuations up to 4 Hz which can be regarded as a noise level. Detection of target molecules with the slit cantilever is based on the capturing by immobilized mAb on the cantilever beam. It occurs in the measurement of the frequency shift due to mass loading on the surface. Firstly, the specific antibody (mAb) of 10 μg/mL was chemically immobilized on the 60 μm × 280 μm dimension of the Au surface (50 nm thickness) of the slit cantilever. The Aβ42 peptide was diluted with a ten-fold difference from 10 pg/mL to 1 μg/mL in 10 mM PBS. The prepared Aβ42 solution was individually introduced into the slit cantilever for 30 min, followed by rinsing with PBS. The changes of resonant frequencies in PBS were measured before and after the recognition interactions between mAb and target analytes. The resonant frequency decreased according to the concentration increment of target analytes owing to mass adsorption of Aβ42 to the specific binding site of the immobilized mAb. The average values of the frequency shifts were measured as −15.5, −56.5, −119.5, −472.5, −774 and −799 Hz for the concentrations from 10 pg/mL to 1 μg/mL, respectively. As noted earlier, these responses were satisfied with at least three-sigma significance in terms of the signal-to-noise ratio of the sensors.

[2] = biological target: monoclonal 6E10 antibody (mAb); assay: Binding affinity (KD) of Aβ42-mAb by Langmuir isotherm fit of slit cantilever responses; details: global fit of Langmuir isotherm (χ^2 = 0.010958), 1:1 binding; fractional saturation vs. Aβ concentration; 1 μg/mL assumed fully saturated; PBS; read-out: equilibrium dissociation constant (KD)
Method: To detect the target molecules, a commercial monoclonal 6E10 antibody (mAb, 10 μg/mL, Covance, Princeton, NJ, USA) was immobilized on the cantilever surfaces by using a conventional coupling method. The mAb is known to include a specific binding ligand with the first 1–16 sequence of human Aβ peptides. Prior to antibody immobilization, the slit cantilever with a 50 nm thick Au surface was cleaned with piranha solution (a 4:1 ratio of H2SO4 to H2O2) and rinsed with deionized water (DI). In addition, 10 mM of 11-Mercaptoundecanoic acid (11-MUC, Sigma-Aldrich, St. Louis, MO, USA) diluted in ethanol was treated for 12 h on the Au surface of the sensor to establish a self-assembled monolayer. […]
To evaluate the sensing performance of the slit cantilever in a liquid environment, quantification of the synthetic Aβ42 peptide, which has an identical sequence of 42-residue amino acids associated with human AD, was investigated in a physiological-level concentration. […] The changes of resonant frequencies in PBS were measured before and after the recognition interactions between mAb and target analytes. […] The average values of the frequency shifts were measured as −15.5, −56.5, −119.5, −472.5, −774 and −799 Hz for the concentrations from 10 pg/mL to 1 μg/mL, respectively. […]

Aβ peptides = details: conventional surface plasmon resonance (SPR), ref [27]; cited from earlier work
Method: Meanwhile, Equation (5) predicts the hyperbolic plot of fractional saturation ([AB]/[B]) vs. Aβ concentration. This curve follows isotherms for relatively obscure thermodynamic reasons. […] The acquired value is consistent with those of previous studies (1.2 nM) using conventional surface ...

| Substance | frequency shift (average) ([1]; 10 pg/mL Aβ42) | frequency shift (average) ([1]; 100 pg/mL Aβ42 (ten-fold dilution series 10 pg/mL to 1 μg/mL)) | frequency shift (average) ([1]; 1 ng/mL Aβ42 (ten-fold dilution series 10 pg/mL to 1 μg/mL)) | frequency shift (average) ([1]; 10 ng/mL Aβ42 (ten-fold dilution series 10 pg/mL to 1 μg/mL)) | frequency shift (average) ([1]; 100 ng/mL Aβ42 (ten-fold dilution series 10 pg/mL to 1 μg/mL)) | frequency shift (average) ([1]; 1 μg/mL Aβ42) | sensitivity ([1]; dynamic range 100 pg/mL to 100 ng/mL Aβ42, logarithmic concentration) | Kd [2] | Kd (Aβ peptides) | resonant frequency response, negative control ([1]; PSA protein as control experiment, mAb-immobilized cantilever) |
| --- | --- | --- | --- | --- | --- | --- | --- | --- | --- | --- |
| Aβ42: synthetic Aβ42 peptide, which has an identical sequence of 42-residue amino acids associated with human AD (Sigma-Aldrich) | −15.5 Hz | −56.5 Hz | −119.5 Hz | −472.5 Hz | −774 Hz | −799 Hz | 330 Hz/decade | 1.75 nM | 1.2 nM |  |
| PSA: prostate cancer antigen (PSA) protein introduced as a control experiment |  |  |  |  |  |  |  |  |  | no obvious responses were observed |
